# Reference: patent US7897772B2, “Acid addition salt of irinotecan” (priority 2004, dated 2011)
# Where a name gives a salt, the structure may show the parent alone.
# Tests used:
# [1] = Peroral absorbability in beagles: plasma irinotecan level and pharmacokinetic analysis (Example 6); type: in vivo
# Source text: To each beagle, a solid chow (about 350 g) was fed once a day at around 3 p.m., and the unconsumed chow was removed at around 9 a.m. on the following day, except that on the day before the day of administration the unconsumed chow was removed about two hours after feeding. On the day of administration, blood was drawn three hours after administration and the chow was fed after blood collection. On the day after the day of administration, the unconsumed chow was removed at 9 a.m.
# After administration, tap water (about 20 mL) was fed to the mouth of the beagle by use of an injection syringe.
# The thus-collected blood samples were dispensed into 1.5-mL tubes, to which heparin sodium (20 μL, 20 units) had been added in advance and which had been dried under nitrogen flow (tubes employed for the first administration were not dried). The samples were centrifuged (4° C., about 13,000×g, one minute) to thereby obtain plasma.
# The lower quantification limit was […] plasma.
# Non-compartmental analysis of the obtained data was performed by use of a WinNonlin Ver4.1. Data of the following pharmacokinetic parameters were obtained.
# Final phase half-time (T1/2),
# Time to reach maximum plasma level (Tmax),
# Maximum plasma level (Cmax),
# Area under time-level curve to infinite time (AUC0-inf),
# Bioavailability (BA), wherein
# Mean absorption time (MAT), wherein
# MAT(h)=(mean residence time (MRT0-inf) after oral administration)−(mean residence time (MRT0-inf) after intravenous injection).
# [2] = Dissolution of irinotecan acid addition salts in water at 100 mg/mL at room temperature and state of the solution after 6 days of stirring (Example 1); type: physicochemical; details: for Dissolution of the salt in water at room temperature: salt content adjusted to 100 mg/mL, no heating; for State of the Solution after Day 6: 100 mg/mL aqueous solution, membrane-filtered, stirred at room temperature (25° C.) for 6 days, visually observed
# Procedure: To an aqueous suspension of irinotecan (1-ethyl-10-[4-(1-piperidino)-1-piperidino]carbonyloxycamptothecin) produced through the method disclosed in Patent Document 1, each acid species was added, to thereby produce a corresponding irinotecan acid addition salt. The irinotecan acid addition salt content was adjusted to 100 mg/mL. […] Each of the aqueous solutions employing sulfuric acid, phosphoric acid methanesulfonic acid, citric acid, maleic acid, and succinic acid, respectively, was filtered by a membrane filter, and the filtrate was stirred at room temperature (25° C.). After continuous stirring for 6 days, the aqueous solution was visually observed so as to evaluate the state of the solution.
# [3] = Dissolution of 100 mg/mL salt suspensions on heating and later crystal deposition at 25° C. (Example 2); type: physicochemical; details: 100 mg/mL, stirred at 100° C. for 30 minutes
# Procedure: The thus-produced irinotecan nitric acid addition salt solution was stirred at 25° C. After stirring of the solution for about 42 hours, crystals of the irinotecan nitric acid addition salt were deposited.
# [4] = Three-month room-temperature storage of 20, 30 and 40 mg/mL aqueous solutions, visual observation (Example 5); type: physicochemical; details: three months
# Source text: The filtrate was allowed to stand at room temperature for three months, and the aqueous solution after storage was visually observed so as to evaluate the solution state.
# [5] = peroral capsule, 10 mg/kg as irinotecan, 20 min after administration
# [6] = peroral, 10 mg/kg as irinotecan
# [7] = peroral, 10 mg/kg as irinotecan, mean ± SD (number of samples in parentheses), 10 mg/kg
# [8] = peroral, 10 mg/kg as irinotecan, mean ± SD (number of samples in parentheses), listed as irinotecan methanesulfonic acid addition salt, 10 mg/kg
# [9] = peroral, 10 mg/kg as irinotecan, mean ± SD (number of samples in parentheses), listed as irinotecan sulfuric acid addition salt, 10 mg/kg
smiles,measurement,setting,value
"CCc1c2c(nc3ccc(OC(=O)N4CCC(N5CCCCC5)CC4)cc13)-c1cc3c(c(=O)n1C2)COC(=O)[C@]3(O)CC [Irinotecan (7-ethyl-10-[4-(1-piperidino)-1-piperidino]carboxyoxycamptothecin) hydrochloride, reference compound]",concentration at 3 h,"[1]; male, beagle, dog, plasma, oral, 10 mg/kg, peroral, 10 mg/kg as irinotecan, 3 h, mean (n=6) ± SD",2010 ± 450 ng/mL
same,concentration at 4 h,"[1]; male, beagle, dog, plasma, oral, 10 mg/kg, peroral, 10 mg/kg as irinotecan, 4 h, mean (n=6) ± SD",1620 ± 390 ng/mL
same,concentration at 6 h,"[1]; male, beagle, dog, plasma, oral, 10 mg/kg, peroral, 10 mg/kg as irinotecan, 6 h, mean (n=6) ± SD",947 ± 363 ng/mL
same,concentration at 8 h,"[1]; male, beagle, dog, plasma, oral, 10 mg/kg, peroral, 10 mg/kg as irinotecan, 8 h, mean (n=6) ± SD",538 ± 264 ng/mL
same,concentration at 12 h,"[1]; male, beagle, dog, plasma, oral, 10 mg/kg, peroral, 10 mg/kg as irinotecan, 12 h, mean (n=6) ± SD",179 ± 138 ng/mL
same,AUC(0-inf),"[1]; male, beagle, dog, plasma, po, 10 mg/kg, peroral, 10 mg/kg as irinotecan, mean ± SD (number of samples in parentheses), read-out: AUC0-inf (area under time-level curve to infinite time)",11200 ng·h/mL
same,Cmax,"[1]; male, beagle, dog, plasma, po, 10 mg/kg, peroral, 10 mg/kg as irinotecan, mean ± SD (number of samples in parentheses), read-out: Cmax (maximum plasma level)",2030 ng/mL
same,Tmax,"[1]; male, beagle, dog, plasma, po, 10 mg/kg, peroral, 10 mg/kg as irinotecan, mean ± SD (number of samples in parentheses), read-out: Tmax (time to reach maximum plasma level)",2.83 ± 0.41 h
same,BA (bioavailability),"[1]; peroral 10 mg/kg as irinotecan, AUC0-inf oral ÷ AUC0-inf intravenous × 100, listed as irinotecan hydrochloric acid addition salt, hydrochloride",48.80%
same,Plasma irinotecan level (no mean given),"[1]; peroral capsule, 10 mg/kg as irinotecan, 10 min after administration, hydrochloride, 10 mg/kg",—^b) (≧3 Beagles of a group consisting of six beagles exhibited a plasma level of ≦5 ng/mL.)
same,Plasma irinotecan level (no mean given),[1]; [5],— (≧3 Beagles of a group consisting of six beagles exhibited a plasma level of ≦5 ng/mL.)
same,Dissolution of the salt in water at room temperature,"[2]; listed as hydrochloric acid, hydrochloride",not dissolved in water at room temperature
"CCc1c2c(nc3ccc(OC(=O)N4CCC(N5CCCCC5)CC4)cc13)-c1cc3c(c(=O)n1C2)COC(=O)[C@]3(O)CC [Irinotecan acetic acid addition salt, reference compound]",Dissolution on heating,[3],maintained undissolved
same,Dissolution of the salt in water at room temperature,[2]; listed as acetic acid,not dissolved in water at room temperature
"CCc1c2c(nc3ccc(OC(=O)N4CCC(N5CCCCC5)CC4)cc13)-c1cc3c(c(=O)n1C2)COC(=O)[C@]3(O)CC [Irinotecan citric acid addition salt, irinotecan citric acid salt]",State of the Solution after Day 6,[2],No crystal deposited
same,Dissolution of the salt in water at room temperature,[2]; listed as citric acid,dissolved in water at room temperature
"CCc1c2c(nc3ccc(OC(=O)N4CCC(N5CCCCC5)CC4)cc13)-c1cc3c(c(=O)n1C2)COC(=O)[C@]3(O)CC [Irinotecan fumaric acid addition salt, reference compound]",Dissolution of the salt in water at room temperature,[2]; listed as fumaric acid,not dissolved in water at room temperature
"CCc1c2c(nc3ccc(OC(=O)N4CCC(N5CCCCC5)CC4)cc13)-c1cc3c(c(=O)n1C2)COC(=O)[C@]3(O)CC [Irinotecan maleic acid addition salt, irinotecan maleic acid salt]",Dissolution of the salt in water at room temperature,[2]; listed as maleic acid,dissolved in water at room temperature
CCc1c2c(nc3ccc(OC(=O)N4CCC(N5CCCCC5)CC4)cc13)-c1cc3c(c(=O)n1C2)COC(=O)[C@]3(O)CC [Irinotecan methanesulfonic acid addition salt] [irinotecan methanesulfonic acid salt],Plasma irinotecan level (no mean given),"[1]; peroral capsule, 10 mg/kg as irinotecan, 10 min after administration, 10 mg/kg",— (≧3 Beagles of a group consisting of six beagles exhibited a plasma level of ≦5 ng/mL.)
same,Plasma irinotecan level (no mean given),[1]; [5],— (≧3 Beagles of a group consisting of six beagles exhibited a plasma level of ≦5 ng/mL.)
same,"Time after administration at which the plasma level reached the maximum (mean profile, text)",[1]; [6],two
same,AUC0-inf (area under time-level curve to infinite time),[1]; [7],17.58 ± 2.08(5)^$ μg · h/mL
same,Tmax (time to reach maximum plasma level),[1]; [7],2.17 ± 0.41(6) h
same,AUC0-inf (area under time-level curve to infinite time),[1]; [8],17.68 µg·h/mL
same,Cmax (maximum plasma level),[1]; [8],3470 ng/mL
same,State of the Solution after Day 6,[2],No crystal deposited
same,Dissolution of the salt in water at room temperature,[2],dissolved in water at room temperature
"CCc1c2c(nc3ccc(OC(=O)N4CCC(N5CCCCC5)CC4)cc13)-c1cc3c(c(=O)n1C2)COC(=O)[C@]3(O)CC [Irinotecan phosphoric acid addition salt, irinotecan phosphoric acid salt]",Dissolution of the salt in water at room temperature,[2]; listed as phosphoric acid,dissolved in water at room temperature
"CCc1c2c(nc3ccc(OC(=O)N4CCC(N5CCCCC5)CC4)cc13)-c1cc3c(c(=O)n1C2)COC(=O)[C@]3(O)CC [Irinotecan succinic acid addition salt, irinotecan succinic acid salt]",Dissolution of the salt in water at room temperature,[2]; listed as succinic acid,dissolved in water at room temperature
"CCc1c2c(nc3ccc(OC(=O)N4CCC(N5CCCCC5)CC4)cc13)-c1cc3c(c(=O)n1C2)COC(=O)[C@]3(O)CC [Irinotecan sulfuric acid addition salt, irinotecan sulfuric acid salt]",concentration at 10 min,"[1]; male, beagle, dog, plasma, oral, 10 mg/kg, peroral capsule, 10 mg/kg as irinotecan, 10 min after administration, mean (n=6) ± SD",126 ± 112 ng/mL
same,concentration at 20 min,"[1]; male, beagle, dog, plasma, oral, 10 mg/kg, peroral capsule, 10 mg/kg as irinotecan, 20 min after administration, mean (n=6) ± SD",1560 ± 1550 ng/mL
same,concentration at 20 min,"[1]; male, beagle, dog, plasma, oral, 10 mg/kg, peroral, 10 mg/kg as irinotecan, twenty minutes after administration",1560 ng/mL
same,BA (bioavailability),"[1]; peroral 10 mg/kg as irinotecan, AUC0-inf oral ÷ AUC0-inf intravenous × 100",70.14%
same,Time after administration at which the plasma level became measurable,[1]; [6],10 min
same,Plasma irinotecan level maintained,"[1]; peroral, 10 mg/kg as irinotecan, from hour 1 to hour 3",≥ 3 µg/mL
same,AUC0-inf (area under time-level curve to infinite time),[1]; [7],18.54 ± 1.59(5)^$ μg · h/mL
same,Tmax (time to reach maximum plasma level),[1]; [7],2.33 ± 0.52(6) h
same,AUC0-inf (area under time-level curve to infinite time),[1]; [9],13.54 µg·h/mL
same,Cmax (maximum plasma level),[1]; [9],3670 ng/mL
same,State of the Solution after Day 6,[2],No crystal deposited
same,Dissolution of the salt in water at room temperature,[2],dissolved in water at room temperature
"CCc1c2c(nc3ccc(OC(=O)N4CCC(N5CCCCC5)CC4)cc13)-c1cc3c(c(=O)n1C2)COC(=O)[C@]3(O)CC.O=[N+]([O-])O [Nitric acid addition salt (1), irinotecan nitric acid salt]",Solution state after storage,[4]; 20 mg/mL aqueous solution,−
same,Solution state after storage,[4]; 30 mg/mL aqueous solution,−
same,Solution state after storage,[4]; 40 mg/mL aqueous solution,+
"CCc1c2c(nc3ccc(OC(=O)N4CCC(N5CCCCC5)CC4)cc13)-c1cc3c(c(=O)n1C2)COC(=O)[C@]3(O)CC.O=[N+]([O-])O [Nitric acid addition salt (2), irinotecan nitric acid salt]",Solution state after storage,[4]; 20 mg/mL aqueous solution,−
same,Solution state after storage,[4]; 30 mg/mL aqueous solution,−
same,Solution state after storage,[4]; 40 mg/mL aqueous solution,−
"CCc1c2c(nc3ccc(OC(=O)N4CCC(N5CCCCC5)CC4)cc13)-c1cc3c(c(=O)n1C2)COC(=O)[C@]3(O)CC.O=P(O)(O)O [Phosphoric acid addition salt (2), irinotecan phosphoric acid salt]",Solution state after storage,[4]; 20 mg/mL aqueous solution,−
same,Solution state after storage,[4]; 30 mg/mL aqueous solution,−
same,Solution state after storage,[4]; 40 mg/mL aqueous solution,−
"CCc1c2c(nc3ccc(OC(=O)N4CCC(N5CCCCC5)CC4)cc13)-c1cc3c(c(=O)n1C2)COC(=O)C3(O)CC.O=S(=O)(O)O (stereo not drawn) [Sulfuric acid addition salt (2), irinotecan sulfuric acid salt]",Solution state after storage,[4]; 20 mg/mL aqueous solution,−
same,Solution state after storage,[4]; 30 mg/mL aqueous solution,−
same,Solution state after storage,[4]; 40 mg/mL aqueous solution,−
CCc1c2c(nc3ccc(OC(=O)N4CCC(N5CCCCC5)CC4)cc13)-c1cc3c(c(=O)n1C2)COC(=O)[C@]3(O)CC [irinotecan methanesulfonic acid salt],bioavailability,"[1]; male, beagle, dog, plasma, po, 10 mg/kg, peroral 10 mg/kg as irinotecan, AUC0-inf oral ÷ AUC0-inf intravenous × 100, read-out: BA (bioavailability)",61 ± 3.84%
